This is an account of results in patent US12371454B2, “Cyclic peptide compound having Kras inhibitory action” (priority 2019, dated 2025).

Starred links: 1 amine or outer side, 2 acyl side, 3 side chain; linkers in the order of their positions; H or OH if unused. Positions of bridges follow the written chain, without caps; N, C: chain ends. Non-standard residues stand in square brackets, D forms with d. Residues, ends and D or L forms follow the SMILES beside them. *: point of attachment. hPhe(3-Cl-4-CF3) = N[C@@H](CCc1ccc(C(F)(F)F)c(Cl)c1)C(=O)O; NMePhe(4-CF3) = CN[C@@H](Cc1ccc(C(F)(F)F)cc1)C(=O)O; NMePhe(4-Cl) = CN[C@@H](Cc1ccc(Cl)cc1)C(=O)O; NMePhe(4-Me) = CN[C@@H](Cc1ccc(C)cc1)C(=O)O; NMedβ3hAla = C[C@H](CC(=O)[*:2])N(C)[*:1]; Leu(4,5-dehydro) = C=C(C)C[C@H](N)C(=O)O; NMeAla(cPent) = CN[C@@H](CC1CCCC1)C(=O)O; Phe(3-Br) = N[C@@H](Cc1cccc(Br)c1)C(=O)O; Phe(3-Cl) = N[C@@H](Cc1cccc(Cl)c1)C(=O)O; Phe(3-OMe) = COc1cccc(C[C@H](N)C(=O)O)c1; Phe(3-I) = N[C@@H](Cc1cccc(I)c1)C(=O)O; X10 = CC(C)=CC[C@H](N[*:1])C(=O)[*:2]; NMeCha = CN[C@@H](CC1CCCCC1)C(=O)O; NMeCba = CN[C@@H](CC1CCC1)C(=O)O; NMeD = CN[C@@H](CC(=O)O)C(=O)O; NMeL = CN[C@@H](CC(C)C)C(=O)O; NMeA = CN[C@@H](C)C(=O)O; NMeAib = CNC(C)(C)C(=O)O; Nle = CCCC[C@H](N)C(=O)O; Piperidide = C1CCN(*)CC1; Pyrrolidide = C1CCN(*)C1; dNMeA = CN[C@H](C)C(=O)O; Aze = O=C(O)[C@@H]1CCN1; Nva = CCC[C@H](N)C(=O)O; Sar = CNCC(=O)O

For this experiment, the target named is T1, Kras and SOS1 (biotin-tagged human Kras loaded with GDP, His-tagged human SOS1) (Homo sapiens, UniProt P01116, G12D).
T1 construct: made in house; host or cells: E. coli (stated for Kras only)
T1 sequence (P01116 1-188 isoform P01116-2 G12D): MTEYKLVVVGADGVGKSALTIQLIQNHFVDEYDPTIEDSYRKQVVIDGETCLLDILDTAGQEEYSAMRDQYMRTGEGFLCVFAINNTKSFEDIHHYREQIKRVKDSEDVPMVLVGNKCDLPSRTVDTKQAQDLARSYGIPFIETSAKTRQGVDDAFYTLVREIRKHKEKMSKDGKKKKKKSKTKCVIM
As to the kind of experiment: Protein-protein interaction inhibition between Kras and SOS1 (KrasGl2D-SOS PPI) using AlphaScreen. Particulars: AlphaScreen; biotin-tagged human Kras loaded with GDP, His-tagged human SOS1; read-out: KRAS G12D-SOS PPI IC50. The class given is binding. An outline of the steps: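 Kras was produced in E. coli, purified, then loaded with GDP. It was paired via streptavidin acceptor beads with His-SOS1 held on nickel donor beads, and proximity signal at 520-620 nm was read after 680 nm illumination.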
On the technique in general: In Alpha technology, singlet oxygen from a donor bead excites a nearby acceptor bead.
On to `CC[C@H](C)[C@@H]1NC(=O)[C@H](C)N(C)C(=O)C[C@@H](C)N(C)C(=O)[C@H](CC(C)C)NC(=O)C(C)(C)N(C)C(=O)[C@H](CC(C)C)NC(=O)[C@H](CCc2ccc(C(F)(F)F)c(Cl)c2)NC(=O)CN(C)C(=O)[C@H](Cc2ccc(C(F)(F)F)cc2)N(C)C(=O)[C@@H]2CCN2C(=O)CN(C)C1=O` [Compound 1392] (cyclo([Aze][NMePhe(4-CF3)][Sar][hPhe(3-Cl-4-CF3)]L[NMeAib]L[NMedβ3hAla][NMeA]I[Sar])), for which the IC50 (in general, the concentration at which inhibition is half-maximal) was determined as 28 nM.
The same measure for `CC[C@H](C)[C@@H]1NC(=O)[C@H](CC(C)C)N(C)C(=O)C[C@@H](C)N(C)C(=O)[C@H](CC(C)C)NC(=O)C(C)(C)N(C)C(=O)[C@H](CC(C)C)NC(=O)[C@H](CCc2ccc(C(F)(F)F)c(Cl)c2)NC(=O)[C@@H](C)N(C)C(=O)[C@H](Cc2ccc(C)cc2)N(C)C(=O)[C@@H]2CCN2C(=O)CN(C)C1=O` [Compound 1394] (cyclo([Aze][NMePhe(4-Me)][dNMeA][hPhe(3-Cl-4-CF3)]L[NMeAib]L[NMedβ3hAla][NMeL]I[Sar])): 130 nM; for `CC[C@H](C)[C@@H]1NC(=O)[C@H](CC(C)C)N(C)C(=O)C[C@@H](C)N(C)C(=O)[C@H](CC(C)C)NC(=O)C(C)(C)N(C)C(=O)[C@H](CC(C)C)NC(=O)[C@H](CCc2ccc(C(F)(F)F)c(Cl)c2)NC(=O)[C@@H](C)N(C)C(=O)[C@H](Cc2ccc(C(F)(F)F)cc2)N(C)C(=O)[C@@H]2CCN2C(=O)CN(C)C1=O` [Compound 1395] (cyclo([Aze][NMePhe(4-CF3)][dNMeA][hPhe(3-Cl-4-CF3)]L[NMeAib]L[NMedβ3hAla][NMeL]I[Sar])): 270 nM; for `CC[C@H](C)[C@@H]1NC(=O)[C@H](C)N(C)C(=O)C[C@@H](C)N(C)C(=O)[C@H](CC(C)C)NC(=O)C(C)(C)N(C)C(=O)[C@H](CC(C)C)NC(=O)[C@H](CCc2ccc(C(F)(F)F)c(Cl)c2)NC(=O)CN(C)C(=O)[C@H](Cc2ccc(C(F)(F)F)cc2)N(C)C(=O)[C@@H]2CCN2C(=O)[C@H](C)N(C)C1=O` [Compound 1399] (cyclo([Aze][NMePhe(4-CF3)][Sar][hPhe(3-Cl-4-CF3)]L[NMeAib]L[NMedβ3hAla][NMeA]I[NMeA])): 70 nM.
As for `CC[C@H](C)[C@@H]1NC(=O)[C@H](CC(C)C)N(C)C(=O)C[C@@H](C)N(C)C(=O)[C@H](CC(C)C)NC(=O)C(C)(C)N(C)C(=O)[C@H](CC(C)C)NC(=O)[C@H](CCc2ccc(C(F)(F)F)c(Cl)c2)NC(=O)[C@@H](C)N(C)C(=O)[C@H](CC2CCCCC2)N(C)C(=O)[C@@H]2CCN2C(=O)CN(C)C1=O` [Compound 1400] (cyclo([Aze][NMeCha][dNMeA][hPhe(3-Cl-4-CF3)]L[NMeAib]L[NMedβ3hAla][NMeL]I[Sar])), the IC50 is 210 nM.
The figure for `CC[C@H](C)[C@@H]1NC(=O)[C@H](CC(C)C)N(C)C(=O)C[C@@H](C)N(C)C(=O)[C@H](CC(C)C)NC(=O)C(C)(C)N(C)C(=O)[C@H](CC(C)C)NC(=O)[C@H](CCc2ccc(C(F)(F)F)c(Cl)c2)NC(=O)CN(C)C(=O)[C@H](Cc2ccc(C(F)(F)F)cc2)N(C)C(=O)[C@@H]2CCN2C(=O)[C@H](C)N(C)C1=O` [Compound 1401] (cyclo([Aze][NMePhe(4-CF3)][Sar][hPhe(3-Cl-4-CF3)]L[NMeAib]L[NMedβ3hAla][NMeL]I[NMeA])) is 120 nM; for `CC[C@H](C)[C@@H]1NC(=O)[C@H](C)N(C)C(=O)C[C@@H](C)N(C)C(=O)[C@H](CC(C)C)NC(=O)C(C)(C)N(C)C(=O)[C@H](CC(C)C)NC(=O)[C@H](CCc2ccc(C(F)(F)F)c(Cl)c2)NC(=O)CN(C)C(=O)[C@H](Cc2ccc(C)cc2)N(C)C(=O)[C@@H]2CCN2C(=O)[C@H](C)N(C)C1=O` [Compound 1402] (cyclo([Aze][NMePhe(4-Me)][Sar][hPhe(3-Cl-4-CF3)]L[NMeAib]L[NMedβ3hAla][NMeA]I[NMeA])) it is 57 nM; for `CC[C@H](C)[C@@H]1NC(=O)[C@H](CC(C)C)N(C)C(=O)C[C@@H](C)N(C)C(=O)[C@H](CC(C)C)NC(=O)C(C)(C)N(C)C(=O)[C@H](CC(C)C)NC(=O)[C@H](CCc2ccc(C(F)(F)F)c(Cl)c2)NC(=O)CN(C)C(=O)[C@H](Cc2ccc(C(F)(F)F)cc2)N(C)C(=O)[C@@H]2CCN2C(=O)CN(C)C1=O` [Compound 1403] (cyclo([Aze][NMePhe(4-CF3)][Sar][hPhe(3-Cl-4-CF3)]L[NMeAib]L[NMedβ3hAla][NMeL]I[Sar])) it is 32 nM.
As for `CCCC[C@@H]1NC(=O)[C@H](Cc2cccc(Br)c2)NC(=O)CN(C)C(=O)[C@H](Cc2ccc(Cl)cc2)N(C)C(=O)CN(C)C(=O)CN(C)C(=O)[C@H]([C@@H](C)CC)NC(=O)[C@H](CC(C)C)N(C)C(=O)C[C@@H](C(=O)N2CCCCC2)N(C)C(=O)[C@H](CC(C)C)NC(=O)C(C)(C)N(C)C1=O` [Compound 1404] ([NMeL]I[Sar][Sar][NMePhe(4-Cl)][Sar][Phe(3-Br)][Nle][NMeAib]L[NMeD]-Piperidide; lactam N-11), the IC50 is 17 nM.
The figure for `C=C(C)C[C@@H]1NC(=O)[C@H](Cc2cccc(I)c2)NC(=O)CN(C)C(=O)[C@H](CC2CCCC2)N(C)C(=O)[C@@H]2CCN2C(=O)[C@H](C)N(C)C(=O)[C@H]([C@@H](C)CC)NC(=O)[C@H](CC(C)C)N(C)C(=O)C[C@@H](C(=O)N2CCCCC2)N(C)C(=O)[C@H](CC(C)C)NC(=O)C(C)(C)N(C)C1=O` [Compound 1405] ([NMeL]I[NMeA][Aze][NMeAla(cPent)][Sar][Phe(3-I)][Leu(4,5-dehydro)][NMeAib]L[NMeD]-Piperidide; lactam N-11) is 82 nM; for `CCCC[C@@H]1NC(=O)[C@H](Cc2cccc(Cl)c2)NC(=O)CN(C)C(=O)[C@H](Cc2ccc(Cl)cc2)N(C)C(=O)CN(C)C(=O)CN(C)C(=O)[C@H]([C@@H](C)CC)NC(=O)[C@H](CC(C)C)N(C)C(=O)C[C@@H](C(=O)N2CCCC2)N(C)C(=O)[C@H](CC(C)C)NC(=O)C(C)(C)N(C)C1=O` [Compound 1407] ([NMeL]I[Sar][Sar][NMePhe(4-Cl)][Sar][Phe(3-Cl)][Nle][NMeAib]L[NMeD]-Pyrrolidide; lactam N-11) it is 170 nM.
As to `CC[C@H](C)[C@@H]1NC(=O)[C@H](CC(C)C)N(C)C(=O)C[C@@H](C)N(C)C(=O)[C@H](CC(C)C)NC(=O)C(C)(C)N(C)C(=O)[C@H](CC=C(C)C)NC(=O)[C@H](Cc2cccc(I)c2)NC(=O)CN(C)C(=O)[C@H](Cc2ccc(Cl)cc2)N(C)C(=O)[C@@H]2CCN2C(=O)CN(C)C1=O` [Compound 1408] (cyclo([Aze][NMePhe(4-Cl)][Sar][Phe(3-I)][X10][NMeAib]L[NMedβ3hAla][NMeL]I[Sar])), the IC50 was found to be 160 nM.
Take `CCCC[C@@H]1NC(=O)[C@H](Cc2cccc(I)c2)NC(=O)CN(C)C(=O)[C@H](Cc2ccc(Cl)cc2)N(C)C(=O)CN(C)C(=O)CN(C)C(=O)[C@H]([C@@H](C)CC)NC(=O)[C@H](CC(C)C)N(C)C(=O)C[C@@H](C(=O)N2CCCC2)N(C)C(=O)[C@H](Cc2ccccc2)NC(=O)C(C)(C)N(C)C1=O` [Compound 1409] ([NMeL]I[Sar][Sar][NMePhe(4-Cl)][Sar][Phe(3-I)][Nle][NMeAib]F[NMeD]-Pyrrolidide; lactam N-11): the IC50 stood at 170 nM.
The same measure for `CCCC[C@@H]1NC(=O)[C@H](Cc2cccc(I)c2)NC(=O)CN(C)C(=O)[C@H](Cc2ccc(Cl)cc2)N(C)C(=O)CN(C)C(=O)CN(C)C(=O)[C@H]([C@@H](C)CC)NC(=O)[C@H](CC(C)C)N(C)C(=O)C[C@@H](C(=O)N2CCCC2)N(C)C(=O)[C@H](CCC)NC(=O)C(C)(C)N(C)C1=O` [Compound 1410] ([NMeL]I[Sar][Sar][NMePhe(4-Cl)][Sar][Phe(3-I)][Nle][NMeAib][Nva][NMeD]-Pyrrolidide; lactam N-11): 270 nM.
Turning to `CCCC[C@@H]1NC(=O)[C@H](Cc2cccc(OC)c2)NC(=O)CN(C)C(=O)[C@H](Cc2ccc(Cl)cc2)N(C)C(=O)CN(C)C(=O)CN(C)C(=O)[C@H]([C@@H](C)CC)NC(=O)[C@H](CC(C)C)N(C)C(=O)C[C@@H](C(=O)N2CCCC2)N(C)C(=O)[C@H](CC(C)C)NC(=O)C(C)(C)N(C)C1=O` [Compound 1412] ([NMeL]I[Sar][Sar][NMePhe(4-Cl)][Sar][Phe(3-OMe)][Nle][NMeAib]L[NMeD]-Pyrrolidide; lactam N-11), the IC50 was found to be 310 nM.
The same measure for `CCCC[C@@H]1NC(=O)[C@H](Cc2cccc(I)c2)NC(=O)CN(C)C(=O)[C@H](CC2CCC2)N(C)C(=O)[C@@H]2CCN2C(=O)[C@H](C)N(C)C(=O)[C@H]([C@@H](C)CC)NC(=O)[C@H](CC(C)C)N(C)C(=O)C[C@@H](C(=O)N2CCCCC2)N(C)C(=O)[C@H](CC(C)C)NC(=O)C(C)(C)N(C)C1=O` [Compound 1413] ([NMeL]I[NMeA][Aze][NMeCba][Sar][Phe(3-I)][Nle][NMeAib]L[NMeD]-Piperidide; lactam N-11): 190 nM; for `C=C(C)C[C@@H]1NC(=O)[C@H](Cc2cccc(I)c2)NC(=O)CN(C)C(=O)[C@H](Cc2ccc(Cl)cc2)N(C)C(=O)[C@@H]2CCN2C(=O)CN(C)C(=O)[C@H]([C@@H](C)CC)NC(=O)[C@H](CC(C)C)N(C)C(=O)C[C@@H](C(=O)N2CCCCC2)N(C)C(=O)[C@H](CC(C)C)NC(=O)C(C)(C)N(C)C1=O` [Compound 1414] ([NMeL]I[Sar][Aze][NMePhe(4-Cl)][Sar][Phe(3-I)][Leu(4,5-dehydro)][NMeAib]L[NMeD]-Piperidide; lactam N-11): 38 nM.
Regarding `CCCC[C@@H]1NC(=O)[C@H](Cc2cccc(Br)c2)NC(=O)CN(C)C(=O)[C@H](Cc2ccc(Cl)cc2)N(C)C(=O)[C@@H]2CCN2C(=O)[C@H](C)N(C)C(=O)[C@H]([C@@H](C)CC)NC(=O)[C@H](CC(C)C)N(C)C(=O)C[C@@H](C(=O)N2CCCCC2)N(C)C(=O)[C@H](CC(C)C)NC(=O)C(C)(C)N(C)C1=O` [Compound 1415] ([NMeL]I[NMeA][Aze][NMePhe(4-Cl)][Sar][Phe(3-Br)][Nle][NMeAib]L[NMeD]-Piperidide; lactam N-11), the IC50 was 34 nM.
